These are literature values, as cited in patent US8182834B2, “Ternary non-lamellar lipid compositions” (Camurus AB, priority 2004, dated 2012).

For the molecule `CCCCCCCC/C=C\CCCCCCCC(=O)OCC(O)CO` (centres unmarked) [glycerol monooleate], the equilibrium water solubility (room temperature) is recorded as ~10^−7 M. Further, the Equilibrium solubility concentration (water, 25 ° C.) is ~10^−7 M.
